From patent US20250250303A1 (THE TRUSTEES OF COLUMBIA UNIVERSITY IN THE CITY OF NEW YORK, priority 2022, published 2025)
Bridge positions count the residues as written; N and C are the ends. Peptide text beside a SMILES is read from it.

Assays:
IR wild-type (WT) = molecular target: T1, IR wild-type (WT) (Homo sapiens, UniProt P06213); assay: IR activation (auto-phosphorylation) assay in 293 FT cells expressing IR WT; format: cell-based
T1 construct: expressed in transfected cells; host or cells: 293 FT cells
Method: The insulin receptor signaling assay was performed as described earlier with some modifications. For the activation assay, the short isoform of human IR in pCS2-MYC was used as described previously. Plasmid transfections into 293 FT cells were performed with Lipofectamin™ 2000 (Invitrogen).
The cells were incubated with the lysis buffer B [50 mM Hepes pH 7.4, 150 mM NaCl, 10% Glycerol, 1% Triton X-100, 1 mM EDTA, 100 mM sodium fluoride, 2 mM sodium orthovanadate, 20 mM sodium pyrophosphate, 0.5 mM dithiothreitol (DTT), 2 mM phenylmethylsulfonyl fluoride (PMSF)] supplemented with complete Protease Inhibitor Cocktail (Roche), PhosSTOP (Sigma), and 25 U/ml turbo nuclease (Accelagen) on ice for 1 hr. After centrifuge at 20,817 g at 4° C. for 10 min, the concentrations of cell lysate were measured using Micro BCA Protein Assay Kit (Thermo Scientific). About 50-60 μg total proteins were analyzed by SDS-PAGE and quantitative Western blotting. The following antibodies were purchased from commercial sources: Anti-IR-pY1150/1151 (WB, 1:1000; 19H6; labeled as pY IR, Cat. #3024), anti-AKT (WB, 1:1000; 40D4, Cat. #2920), anti-pS473 AKT (WB, 1:1000; D9E, Cat. #4060), anti-ERK1/2 (WB, 1:1000; L34F12, Cat. #4696), anti-pERK1/2 (WB, […]; 197G2, Cat. #4377), anti-IRS1-pS616 (WB, 1:1000; C15H5, Cell Signaling, Cat. #3203); anti-IRS1 (WB, 1:1000; A301-158A, Bethyl Laboratory); anti-IR (WB, 1:500, CT-3, Santa Cruz; labeled as IR for primary hepatocytes and MEFs, Cat. #sc-57342); anti-IR (WB, 1:1000; EPR23566-103; labeled as IR for FIG. 31, ab278100, Abcam); anti-Myc (WB, 1:2000; 9E10, Cat. #11667149001, Roche; labeled as IR for 293 FT cells). For quantitative western blots, anti-rabbit immunoglobulin G (IgG) (H+L) (WB, 1:5000; Dylight 800 conjugates, Cat. #5151) and anti-mouse IgG (H+L) (WB, 1:5000; Dylight 680 conjugates, Cat. #5470) (Cell Signaling) were used as secondary antibodies. The membranes were scanned with the Odyssey Infrared Imaging System (Li—COR, Lincoln, NE).

IR D707A = IR D707A (Homo sapiens, UniProt P06213, D734A); assay: IR signaling in IR-D707A MEFs (tamoxifen-inducible IR knockout); format: cell-based, mouse; design: expressed in transfected cells; host or cells: mouse embryonic fibroblasts from IR F/F; CRE-ERT mice, retroviral pBabe-puro, tamoxifen-treated; details: wide range of concentrations
Method: Fresh 0.25% trypsin-EDTA was added. […] The medium was changed the next day to remove debris and floating cells.

IR D496K = molecular target: T2, IR D496K (Homo sapiens, UniProt P06213, D523K); assay: IR activation assay in 293 FT cells, IR D496K mutant; format: cell-based; details: 10 min
T2 construct: expressed in transfected cells; host or cells: 293 FT cells

IR F497A = molecular target: T3, IR F497A (Homo sapiens, UniProt P06213, F524A); assay: IR activation assay in 293 FT cells, IR F497A mutant; format: cell-based; details: 10 min
T3 construct: expressed in transfected cells; host or cells: 293 FT cells

CAL33 = assay: Cancer cell proliferation, CAL33; format: cell-based
[1] = format: in vivo, mice; details: 50 U/kg once daily for three days; 2 g glucose/kg after 6 hr. fast
Method: For oral glucose tolerance test, mice were fasted for 6 hr. and their blood glucose levels (T=0) were measured with tail bleeding using a glucometer (AlphaTRAK). After then, glucose (2 g/kg body weight) was administered by oral gavage. Blood glucose levels were measured at the indicated time points after glucose administration. For FIG. 31F, 2 months old male mice were fasted for 14 hr. […] One hour later livers were collected.

Sequence of IR D707A (P06213 28-1370 isoform P06213-2 D734A limits assumed): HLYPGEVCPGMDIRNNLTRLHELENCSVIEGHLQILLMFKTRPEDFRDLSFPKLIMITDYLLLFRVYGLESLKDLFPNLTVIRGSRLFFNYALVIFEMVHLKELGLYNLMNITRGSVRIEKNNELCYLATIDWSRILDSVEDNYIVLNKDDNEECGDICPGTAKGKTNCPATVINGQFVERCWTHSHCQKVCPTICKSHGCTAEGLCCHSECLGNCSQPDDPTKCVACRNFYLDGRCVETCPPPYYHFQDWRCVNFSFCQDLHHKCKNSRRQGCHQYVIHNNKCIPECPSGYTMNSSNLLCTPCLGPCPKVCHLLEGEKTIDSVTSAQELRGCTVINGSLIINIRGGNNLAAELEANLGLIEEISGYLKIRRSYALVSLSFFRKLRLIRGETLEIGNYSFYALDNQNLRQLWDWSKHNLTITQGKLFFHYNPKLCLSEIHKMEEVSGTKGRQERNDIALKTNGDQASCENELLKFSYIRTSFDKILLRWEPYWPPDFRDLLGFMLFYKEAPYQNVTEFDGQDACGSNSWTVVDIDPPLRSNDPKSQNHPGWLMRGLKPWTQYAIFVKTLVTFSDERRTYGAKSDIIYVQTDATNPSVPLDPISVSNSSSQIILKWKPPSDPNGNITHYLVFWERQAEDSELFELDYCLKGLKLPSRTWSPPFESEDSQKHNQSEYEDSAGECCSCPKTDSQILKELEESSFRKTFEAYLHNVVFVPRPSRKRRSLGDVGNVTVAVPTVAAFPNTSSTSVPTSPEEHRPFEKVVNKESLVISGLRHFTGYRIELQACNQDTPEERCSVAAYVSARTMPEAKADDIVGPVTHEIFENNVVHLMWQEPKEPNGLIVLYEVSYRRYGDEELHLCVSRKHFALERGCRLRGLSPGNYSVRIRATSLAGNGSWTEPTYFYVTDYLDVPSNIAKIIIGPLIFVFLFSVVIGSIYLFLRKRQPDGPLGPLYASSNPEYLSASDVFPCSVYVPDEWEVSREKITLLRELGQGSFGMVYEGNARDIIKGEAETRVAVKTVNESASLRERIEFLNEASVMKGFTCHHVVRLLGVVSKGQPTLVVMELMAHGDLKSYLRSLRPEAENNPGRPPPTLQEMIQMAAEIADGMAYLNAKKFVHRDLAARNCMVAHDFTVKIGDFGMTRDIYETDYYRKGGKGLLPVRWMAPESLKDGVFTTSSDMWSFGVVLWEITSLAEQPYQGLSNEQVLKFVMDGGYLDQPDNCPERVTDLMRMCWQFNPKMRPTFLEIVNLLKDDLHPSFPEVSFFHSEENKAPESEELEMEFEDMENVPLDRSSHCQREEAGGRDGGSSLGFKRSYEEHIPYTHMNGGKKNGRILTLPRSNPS
Sequence of IR D707A (P06213 763-1382 partner limits assumed): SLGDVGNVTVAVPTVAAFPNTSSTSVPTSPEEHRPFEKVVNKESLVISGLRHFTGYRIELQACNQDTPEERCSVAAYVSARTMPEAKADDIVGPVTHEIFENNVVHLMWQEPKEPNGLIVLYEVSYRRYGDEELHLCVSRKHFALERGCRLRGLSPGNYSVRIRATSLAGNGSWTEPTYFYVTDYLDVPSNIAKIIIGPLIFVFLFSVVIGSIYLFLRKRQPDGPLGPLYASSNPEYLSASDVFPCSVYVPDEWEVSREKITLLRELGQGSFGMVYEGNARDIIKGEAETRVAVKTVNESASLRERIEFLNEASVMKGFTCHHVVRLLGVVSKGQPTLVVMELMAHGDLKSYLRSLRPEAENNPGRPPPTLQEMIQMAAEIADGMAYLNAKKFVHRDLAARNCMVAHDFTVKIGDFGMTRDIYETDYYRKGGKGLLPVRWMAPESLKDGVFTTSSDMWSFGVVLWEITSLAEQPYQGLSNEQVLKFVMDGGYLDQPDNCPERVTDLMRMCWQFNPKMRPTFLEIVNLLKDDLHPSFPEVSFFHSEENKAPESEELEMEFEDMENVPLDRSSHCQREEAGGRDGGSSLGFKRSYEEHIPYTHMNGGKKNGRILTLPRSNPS
T1 sequence (P06213 28-1370 isoform P06213-2 limits assumed): as the sequence (P06213 28-1370 isoform P06213-2 D734A limits assumed) above, with A707D counted along it
T1 sequence (P06213 763-1382 partner limits assumed): as the sequence (P06213 763-1382 partner limits assumed) above
T2 sequence (P06213 28-1370 isoform P06213-2 D523K limits assumed): as the sequence (P06213 28-1370 isoform P06213-2 D734A limits assumed) above, with D496K, A707D counted along it
T2 sequence (P06213 763-1382 partner limits assumed): as the sequence (P06213 763-1382 partner limits assumed) above
T3 sequence (P06213 28-1370 isoform P06213-2 F524A limits assumed): as the sequence (P06213 28-1370 isoform P06213-2 D734A limits assumed) above, with F497A, A707D counted along it
T3 sequence (P06213 763-1382 partner limits assumed): as the sequence (P06213 763-1382 partner limits assumed) above

CC[C@H](C)[C@H](NC(=O)[C@H](CCC(N)=O)NC(=O)[C@H](C)NC(=O)[C@H](Cc1c[nH]c2ccccc12)NC(=O)[C@H](CCC(=O)O)NC(=O)[C@H](CCC(=O)O)NC(=O)[C@H](CCC(=O)O)NC(=O)[C@H](CC(C)C)NC(=O)[C@H](CO)NC(C)=O)C(=O)N[C@@H](CCC(=O)O)C(=O)N[C@H]1CSSC[C@@H](C(=O)N2CCC[C@H]2C(=O)N[C@@H](CO)C(=O)N[C@@H](CCC(=O)O)C(=O)N[C@@H](CO)C(=O)N[C@@H](Cc2ccccc2)C(=O)N[C@@H](Cc2ccc(O)cc2)C(=O)N[C@@H](CC(=O)O)C(=O)N[C@@H](Cc2c[nH]c3ccccc23)C(=O)N[C@@H](Cc2ccccc2)C(=O)N[C@@H](CCC(=O)O)C(=O)N[C@@H](CCCNC(=N)N)C(=O)N[C@@H](CCC(N)=O)C(=O)N[C@@H](CC(C)C)C(N)=O)NC(=O)CNC(=O)[C@H](CCCNC(=N)N)NC(=O)CNC(=O)[C@H](Cc2ccc(O)cc2)NC(=O)[C@H](C(C)C)NC(=O)[C@H](CCC(=O)O)NC1=O [S597] (Ac-SLEEEWAQIECEVYGRGCPSESFYDWFERQL-NH2; disulfide 11-18)
IR activation (auto-phosphorylation of IR, pY IR) (IR wild-type (WT); 293 FT cells expressing IR WT, 10 nM for 10 min): as efficiently as insulin
difference between the A and B isoforms of IR activation (IR wild-type (WT); 293 FT cells expressing IR-A or IR-B, 10 min): no significant difference
phosphorylation of AKT (pAKT) (IR D707A): significantly increased
phosphorylation of ERK (pERK) (IR D707A): significantly increased
phosphorylation of IR (pY IR) (IR D707A): significantly increased
IR activation (pY IR) (IR D496K): fully activated
IR activation (pY IR) (IR F497A): fully activated
cell proliferation (CAL33): did not promote
area under curve (AUC) for blood glucose during OGTT [1]: No significant
